In US20110288042A1, “STABLE HIGHLY PURE AZACITIDINE AND PREPARATION METHODS THEREFOR” (CHEMAGIS LTD., priority 2007, published 2011):
Read-outs that look alike come from different tables or passages of the source.

What was measured:
[1] = Solution stability of 5-azacytidine in the HPLC diluent; format: physicochemical
Experimental: (§1) The HPLC measurements were performed using a system equipped with an Inertsil C18 column (ODS-2, 5 microns, 250×4.6 mm (ODS-167)). Other parameters of the system were as follows: • Detection: UV detector operated on 242 nm • Column temperature: 20° C. • Run time: 45 minutes • Injection volume: 10 μl • Flow rate: 1.0 ml/minute • Sample set temperature: 5° C. • Sample concentration: about 1.65 mg/ml • Diluent: Mixture of 30% 10 mM ammonium acetate and 70% THF
(§2) Analyses were performed using the following mobile phase • Mobile Phase (Eluent) A: 10 mM ammonium acetate • Mobile Phase (Eluent) B: 60% 10 mM ammonium acetate, 40% MeOH

[2] = Induced degradation of 5-azacytidine in solid state (observation, FT-IR, HPLC); format: physicochemical; conditions: for Area (%) at RRT 1.00 (5-azacytidine) / Area (%) of peak at RRT 0.63 / Area (%) of peak at RRT 2.01 / Area (%) of peak at RRT 2.05 / Total impurities (%): solid
Experimental: as §1, §2
The sample was placed in a UV chamber and exposed to UV light for 48 hours. • Accelerated conditions [40±2° C./75±5% Relative Humidity (RH)].
At the end of the stipulated time period, the physical descriptions of each sample were noted down. Identification tests were performed by FT-IR, and purity checks were performed by HPLC analysis. The protected sample, as defined herein, is the reference storage material used for carrying out the experiments detailed in Tables 7 and 8.

[3] = Solution stability of 5-azacytidine in water; format: physicochemical; conditions: for Area (%) at RRT 1.00 (5-azacytidine) / Area (%) of peak at RRT 0.63 / Area (%) of peak at RRT 2.01 / Total impurities by % area / Area (%) of peak at RRT 1.70: water, about 1.65 mg/ml
Experimental: as §1, §2
Samples were withdrawn from the flask every consecutive hour and injected to the HPLC system.

[4] = cited from earlier work
[5] = HPLC diluent, about 1.65 mg/ml, 10 hours
[6] = HPLC diluent, about 1.65 mg/ml, 11 hours
[7] = accelerated conditions (40 ± 2° C., 75 ± 5% RH), 48 hours
[8] = exposure to ambient conditions, visible light 48 hours
[9] = exposure to elevated temperature (105° C.), 48 hours

- Area (%) of peak at RRT 2.05 [1, 5]: 0.24%
- Total impurities by % area [1, 5]: 4.50%
- Area (%) at RRT 1.00 (5-azacytidine) [1, 6]: 95.40%
- Area (%) of peak at RRT 0.63 [1, 6]: 2.87%
- Area (%) of peak at RRT 2.01 [1, 6]: 1.37%
- Area (%) of peak at RRT 2.05 [1, 6]: 0.24%
- Total impurities by % area [1, 6]: 4.60%
- FT-IR spectra changes ([2]; solid state induced degradation): did not show any significant changes
- Stability in solid state (HPLC analysis) ([2]; solid state, Tables 7 and 8): stable to heat and IJV light
- Change in color of the sample ([2]; solid state, exposed to an elevated temperature): slight change in color
- Area (%) at RRT 1.00 (5-azacytidine) [2, 7]: 97.04%
- Area (%) of peak at RRT 0.63 [2, 7]: 1.90%
- Area (%) of peak at RRT 2.01 [2, 7]: 0.80%
- Area (%) of peak at RRT 2.05 [2, 7]: 0.14%
- Total impurities (%) [2, 7]: 2.96%
- Area (%) at RRT 1.00 (5-azacytidine) ([2]; exposure to UV light, 48 hours): 96.64%
- Area (%) of peak at RRT 0.63 ([2]; exposure to UV light, 48 hours): 1.66%
- Area (%) of peak at RRT 2.01 ([2]; exposure to UV light, 48 hours): 1.35%
- Area (%) of peak at RRT 2.05 ([2]; exposure to UV light, 48 hours): 0.24%
- Total impurities (%) ([2]; exposure to UV light, 48 hours): 3.36%
- Area (%) at RRT 1.00 (5-azacytidine) [2, 8]: 96.75%
- Area (%) of peak at RRT 0.63 [2, 8]: 1.52%
- Area (%) of peak at RRT 2.01 [2, 8]: 1.36%
- Area (%) of peak at RRT 2.05 [2, 8]: 0.27%
- Total impurities (%) [2, 8]: 3.25%
- Area (%) at RRT 1.00 (5-azacytidine) [2, 9]: 96.61%
- Area (%) of peak at RRT 0.63 [2, 9]: 2.00%
- Area (%) of peak at RRT 2.01 [2, 9]: 1.01%
- Area (%) of peak at RRT 2.05 [2, 9]: 0.17%
- Total impurities (%) [2, 9]: 3.39%
- Area (%) at RRT 1.00 (5-azacytidine) ([2]; protected sample (storage)): 96.72%
- Area (%) of peak at RRT 0.63 ([2]; protected sample (storage)): 1.55%
- Area (%) of peak at RRT 2.01 ([2]; protected sample (storage)): 1.37%
- Area (%) of peak at RRT 2.05 ([2]; protected sample (storage)): 0.24%
- Total impurities (%) ([2]; protected sample (storage)): 3.28%
- Area (%) at RRT 1.00 (5-azacytidine) ([3]; 0 hours): 97.47%
- Area (%) of peak at RRT 0.63 ([3]; 0 hours): 0.64%
- Area (%) of peak at RRT 2.01 ([3]; 0 hours): 1.59%
- Total impurities by % area ([3]; 0 hours): 2.53%
- Area (%) at RRT 1.00 (5-azacytidine) ([3]; 1 hour): 95.97%
- Area (%) of peak at RRT 0.63 ([3]; 1 hour): 2.16%
- Area (%) of peak at RRT 2.01 ([3]; 1 hour): 1.57%
- Total impurities by % area ([3]; 1 hour): 4.03%
- Area (%) at RRT 1.00 (5-azacytidine) ([3]; 4 hours): 91.38%
- Area (%) of peak at RRT 0.63 ([3]; 4 hours): 6.86%
- Area (%) of peak at RRT 2.01 ([3]; 4 hours): 1.46%
- Total impurities by % area ([3]; 4 hours): 8.62%
- Area (%) at RRT 1.00 (5-azacytidine) ([3]; 8 hours): 83.61%
- Area (%) of peak at RRT 0.63 ([3]; 8 hours): 14.68%
- Area (%) of peak at RRT 1.70 ([3]; 8 hours): 0.23%
- Area (%) of peak at RRT 2.01 ([3]; 8 hours): 1.36%
- Total impurities by % area ([3]; 8 hours): 16.39%
- Area (%) at RRT 1.00 (5-azacytidine) ([3]; 12 hours): 77.01%
- Area (%) of peak at RRT 0.63 ([3]; 12 hours): 21.28%
- Area (%) of peak at RRT 1.70 ([3]; 12 hours): 0.35%
- Area (%) of peak at RRT 2.01 ([3]; 12 hours): 1.25%
- Total impurities by % area ([3]; 12 hours): 22.99%
Compound: Nc1ncn([C@@H]2O[C@H](CO)[C@@H](O)[C@H]2O)c(=O)n1 [5-azacytidine, 4-amino-1-β-D-ribofuranosyl-1,3,5-s-triazine-2(1H)-one]
- Solution stability in HPLC diluent ([1]; dissolved in the HPLC diluent): stable within the average time period needed to complete the HPLC method
- Solution stability in water ([3]; in water): unstable in water over prolonged time periods
- Solubility ([4]; in 5% Tween 80 in water): sparingly soluble
- Solubility ([4]; in 5% dextrose in water): sparingly soluble
- Solubility ([4]; in N-methyl-2-pyrrolidone): sparingly soluble
- Solubility ([4]; in acetone): insoluble
- Solubility ([4]; in dimethylsulfoxide (DMSO)): soluble
- Solubility ([4]; in ethanol/water (50/50)): slightly soluble
- Solubility ([4]; in ethanol): insoluble
- Solubility ([4]; in methyl ethyl ketone): insoluble
- Solubility ([4]; in normal saline): sparingly soluble
- Solubility ([4]; in polyethylene glycol): slightly soluble
- Solubility ([4]; in propylene glycol): slightly soluble
- Solubility ([4]; in water saturated octanol): sparingly soluble
- Solubility ([4]; in water): sparingly soluble
